# Data taken from patent publication US12594296B2, “Methods for treatment or prevention of damage resulting from radiation, trauma or shock” (priority 2012, dated 2026).
# Where two headings read alike, the source gives them in different places.
# Tests used:
# [1] = tested on: irradiated left buccal cheek pouch (oral mucositis); test: Mucosal radiation dose ranging study, oral mucositis (Example 2); format: in vivo, Syrian Golden hamsters; conditions: 40 Gy to cheek pouch; 50, 100, 250 and 500 μg/mL t.i.d. into the pouch
# Procedure: In a dose ranging study, an acute dose of irradiation of 40 Gy directed to the left buccal cheek pouch of Syrian Golden hamsters and the hamsters were treated t.i.d. with 50, 100, 250 and 500 μg/mL PAAG or vehicle control directly inserted into the pouch. Mean % weight change and mucositis score were recorded. The mucosal radiation dose ranging study was performed as described above with PAAG (86 kDa and 30% functionalization) added to the indicated final concentrations. […] A comparison of the mean percent weight gain for […] dosed with vehicle control and four dosing concentrations of PAAG is shown in FIG. 4. […] The healing effect of PAAG is shown in FIG. 6, which depicts the comparison of the percentage of animals with a mucositis score of 3 or higher on a given day post irradiation for a vehicle control and three doses of PAAG.
# [2] = tested on: IL-8 production in U937 cells; test: IL-8 production response in LPS-stimulated U937 cells (IL-8 ELISA); format: cell-based, human; conditions: 1 h pretreatment, rinsed, LPS 10 ng/ml 4 h; relative to control or lactoferrin pretreatment
# [3] = tested on: MRSA strain MW2 (ATCC BAA-1707); test: Nasal epithelium/MRSA binding assay (RPMI-2650 cells); format: cell-based; conditions: pretreatment 200 or 500 ppm for 5 and 60 minutes; compared to PBS and media controls
# Acinetobacter baumaunii = test: Caco2 attachment of Acinetobacter baumannii; format: cell-based; conditions: pretreatment 200 μg/mL 1 h; relative to untreated cells
# Procedure: Caco2 Attachment. The gut epithelium cell line (Caco2) were grown in Eagle's Minimal Essential Media (EMEM) supplemented with 10% (v/v) fetal bovine serum and 2 mm L-glutamine. Caco2 cells were seeded at 2.5×10^5 per well in 24 well plates and incubated at 37° C. and in atmosphere of 5% CO2 for 24 hours to confluency. The cells were then rinsed twice with D-PBS and replaced with (EMEM) without fetal bovine serum for another 24 hours. Cells were rinsed with D-PBS twice and replaced with media containing no fetal bovine serum. Pretreatment of the cells with PAAG 200 ug/ml (86 kDa, 30% functionalization; 37 kDa, 22% functionalization; and 27 kDa, 21% functionalization) dissolved in media without serum for one hour was performed and the cells were then rinsed twice with D-PBS to remove any non-adherent PAAG. After rinsing, the cells were inoculated with Acinetobacter baumaunii in growth phase at a multiplicity of infection (MOI) of 1:100 for one hour. Cells were then rinsed twice with D-PBS before being lysed using 0.5% Triton X-100 in D-PBS. Supernatants were extracted and serially diluted, plated and counted for bacterial attachment.
# (§1) Pretreatment and binding studies were performed as described above for Caco2 cells with Acinetobacter attachment and Burkholderia cepacia macrophage uptake studies, with the PAAG (86 kDa and 30% functionalization) added to the indicated final concentrations.
# Burkholderia cepacia = Burkholderia cepacia macrophage uptake (U937); format: cell-based; conditions: pretreatment of U937 with 200 μg/mL; relative to untreated cells
# Procedure: Burkholderia cepacia macrophage uptake. The myeloid cell line (U937) were grown in RPMI 1640 supplemented with 10% (v/v) fetal bovine serum and 2 mm L-glutamine. Cells were seeded at 6×10^5 cells per well in 24 well plates in RPMI 1640 additionally supplemented with 0.1 ug PMA for 48 hours to activate U937 cells to be macrophage-like. Cell media was replaced with cell media without fetal bovine serum and PMA for at least 2 hours. Treatments consisted of either PAAG (200 ug/ml) treated on cells for one hour and being rinsed with D-PBS twice before inoculation or with PAAG treatment with no rinse. Upon completion of pretreatment with PAAG, cells were inoculated with Burkholderia cepacia in growth phase with an MOI of 1:10 for 45 min. After inoculation period media is supplemented with 50 ug/ml of gentamicin for another 45 min. Cells were then rinsed twice with D-PBS before being lysed using 0.5% Triton X-100 in D-PBS and serially diluted, plated and counted for bacterial uptake.
# as §1
# [4] = tested on: mice exposed to ionizing radiation; test: Survival after three doses of total body radiation (Example 11); format: in vivo, CB57BL/6 mice; conditions: for mortality, vehicle versus PAAG: 50 mg/kg once a day oral gavage
# Procedure: Male CB57BL/6 mice of the same weight and age were subjected to radiation doses of 12.5, 13.5 and 14.0 Gy. Animals were given the same dose of PAAG (50 mg/kg once a day) by oral gavage as in the previous study. Eighteen (18) animals were studied in each of […]: irradiated control and active PAAG at each dose. Mortality data is shown in FIG. 30 for three doses of total body radiation treated with vehicle or PAAG given via oral gavage daily.
# [5] = tested on: small intestine of irradiated C57BL/6 mice
# [6] = Irradiation biomarkers in plasma (pro-calcitonin, citrulline) (Example 10)
# [7] = tested on: bacteria in the mesenteric lymph nodes; test: Intestinal bacterial translocation: bacterial count in mesenteric lymph nodes (Example 9); conditions: irradiated animals, 13 Gy; FIG. 16
# [8] = 13 Gy, day 4, quantitative histology, FIG. 19
substance,measurement,setting,value
"poly (acetyl, arginyl) glucosamine [PAAG]",course of oral mucositis,[1],modulated the course of oral mucositis
same,LPS activated IL-8 response,[2],reduced
same,binding of MRSA to nasal epithelial cells,[3],decreases
same,percentage of bacteria bound to Caco2 cells,Acinetobacter baumaunii,decreases
same,percentage of bacterial invasion by Burkholderia cepacia,Burkholderia cepacia,decreases
same,"mortality, vehicle versus PAAG",[4]; 12.5 Gy,numerically significant
same,"mortality, vehicle versus PAAG",[4]; 13.5 Gy,not statistically different
same,"mortality, vehicle versus PAAG",[4]; 14.0 Gy,not statistically different
same,mortality,[4]; after LD70 ionizing radiation,reduced
same,adverse effects,[4]; any dose,No adverse effects
same,crypt degeneration,"[5]; 13 Gy, day 2, 50 mg/kg PO",mild to moderate
same,"villi height, structure and epithelium","[5]; 13 Gy, day 2, 50 mg/kg PO",retained their normal height and structure
same,crypt regeneration,"[5]; 13 Gy, day 3, 50 mg/kg PO",mild to moderate
same,villi blunting,"[5]; 13 Gy, day 3, 50 mg/kg PO",minimally blunted
same,crypt loss,"[5]; 13 Gy, day 4, 50 mg/kg PO",moderate to marked
same,crypt regeneration,"[5]; 13 Gy, day 4, 50 mg/kg PO",moderate to marked
same,loss of villous epithelium,"[5]; 13 Gy, day 4, compared with vehicle group 3",not as severe as in group 3 animals
same,GI inflammation relative to control,[5]; [8],reduced
same,crypt loss relative to control,[5]; [8],reduced
same,epithelial loss relative to control,[5]; [8],reduced
same,crypt degeneration versus vehicle-treated mice,"[5]; 13 Gy, days 2-4",less severe
same,inflammation versus vehicle-treated mice,"[5]; 13 Gy, days 2-4",reduced
same,protection from the gastrointestinal effects of total body irradiation,"[5]; 13 Gy, days 2-4",partially protected
same,small intestine histology,"[5]; mouse, in vivo, po, 50 mg/kg",essentially normal
same,citrulline reduction versus untreated irradiated animals,[6]; 13 Gy,statistically less
same,circulating plasma levels of PCT relative to controls,"[6]; 13 Gy, oral gavage once a day",reduced
same,circulating amounts of citrulline relative to control,[6]; day 3 and 4 after lethal ionizing radiation,increased
same,bacteria in the MLN (CFU/g) versus vehicle control group,[7],dramatically less
